Data from paper PMC4057667, “Study on Biopharmaceutics Classification and Oral Bioavailability of a Novel Multikinase Inhibitor NCE for Cancer Therapy” (International Journal of Molecular Sciences, 2014).

Key:
[1] = tested on: rat duodenum, jejunum and ileum; test: In situ single-pass intestinal perfusion (SPIP); details: perfusate 40 μg/mL, n = 6
Procedure: The blank perfusion buffer solution was composed of 9.80 g Hanks’ Balanced Salts, 5.96 g 4-2(Hydroxyethyl) piperazine-1-ethanesulfonic acid (HEPES), 1.16 g NaCl, 3.50 g D-glucose and 0.37 g NaHCO3. The pH was adjusted to 6.5. […] The perfusate containing 2 μg/mL of NCE with and without 0.4% SDS was applied to three intestinal segments to investigate the effect of SDS on intestinal absorption of NCE. To examine whether there was any concentration-dependent characteristics or site specific absorption of NCE, 2, 20 and 40 μg/mL of NCE containing 0.4% SDS (w/v) were also studied in three intestinal segments using the same rat perfusion model.
Male Sprague-Dawley rats (170–230 g) were obtained from the Laboratory Animal Center, Sichuan University (Chengdu, China). Prior to the experiment, animals were fasted for at least 18 h with free access to water. All animal studies were approved and supervised by the State Key Laboratory of Biotherapy Animal Care and Use Committee (Sichuan University, Chengdu, Sichuan, China). Then, single pass intestine perfusion studies were conducted according to the literature. In brief, rats were anaesthetized by pentobarbital sodium (i.p., […]) and placed on a homeothermic pad to maintain their body temperature. After making a 3–4 cm midline abdominal incision, the small intestinal was exposed. The duodenum, jejunum and ileum were isolated as follows: duodenum segment beginning from 1 cm away from pylorus, jejunum segment beginning from 20 cm away from pylorus and ileum segment beginning at the site 20 cm upwards caecum. Each intestinal segment was approximately 10 cm long. After removing the intestinal content by rinsing with warm saline, two glass cannulas were inserted to the distal and proximal end of the segment. Then, the intestinal segments of interest were connected to a perfusion pump and the outlet tubing was placed at the same height as the inlet. The intestine was handled carefully to maintain an intact blood supply.
The segments were rinsed with perfusate at the rate of 1.0 mL/min for 10 min, and then perfused at the rate of 0.2 mL/min for 30 min to maintain a steady-state. The time was set zero immediately when the perfusion started. The outlet perfused samples were collected every 15 min until 120 min. Then, the samples were centrifuged at 1.3 × 10^4 rpm for 10 min. The supernatant was analyzed by HPLC. The length of tested segments was measured and rats were euthanized after experiment.
Peff is the quantitative parameter estimating the passage rate of a solute across a membrane. It was calculated from the steady-state concentration of NCE in the perfusate. The drug concentration in the perfusate was corrected for changes in the water flux. Meanwhile, the density corrected gravimetric method was employed to calculate the net water flux across the incubated intestinal segment. A known volume of perfusate was weighed using an electronic weighing balance to determine the density of the collected samples. After correcting for water flux, the drug concentration in the effluent perfusate (Cout(cor)), was calculated as following.
(3) Cout(cor)=Cout×Qout/Qin
where Cout is the concentration of tested drug in the effluent perfusates, Qin and Qout are the inlet and outlet flow rate (mL/min), respectively, which are adjusted for liquid density (mL/min).
The calculation of permeability across rat intestinal segment was performed from the intestinal perfusate samples collected over 15–120 min (steady state) using the following equation).
(4) Peff=-Qin ln(Cout(cor)/Cin)/2πrl

[2] = tested on: rat duodenum, jejunum and ileum; parameters: method as in PMID 15296954, PMID 8893271; details: reference compounds; cited from earlier work
[3] = tested on: rats; parameters: method as in ref 24 = [24]; 24. Ma N. Wang J. Xu F. Li J. Li Y. Xiao H. Xiang D. Studies on absorptive characters of resveratrol derivative (e)-3,5,4′-trimethoxystilbene in rat intestine Chin. J. Pharm. Anal 2010 30 586 591; details: in perfusion buffer, preliminary experiments; cited from earlier work

Compound	Peff ([1]; Duodenum)	Peff ([1]; Ileum)	Peff ([1]; Jejunum)	permeability class [2]	concentration toxic to rats [3]
CNC(=C[N+](=O)[O-])NCCSCc1ccc(CN(C)C)o1 [Ranitidine, reference compound]	0.15 ± 0.07 ^* 10^−4 cm/s	0.17 ± 0.02 ^N.S ^* 10^−4 cm/s	0.19 ± 0.07 ^N.S. ^* 10^−4 cm/s	low permeability	
CCCCCCCCCCCCOS(=O)(=O)[O-].[Na+] [SDS, sodium dodecyl sulfate]					higher than 1%
Cn1c(=O)c2[nH]cnc2n(C)c1=O [Theophylline, reference compound]	0.74 ± 0.02 ^* 10^−4 cm/s	0.63 ± 0.04 ^N.S. ^* 10^−4 cm/s	0.64 ± 0.01 ^N.S. ^* 10^−4 cm/s		
